These results are taken from paper PMC5435703 (Scientific Reports, 2017).

In brackets after ≈: the same amount, converted by molar mass. Read-outs that look alike come from different tables or passages of the source. Marks after values point to notes of the source that are not given here. Some results are limits rather than exact numbers.

Test [1] has as its system MRSA-1. The experiment in a line: MIC broth microdilution assay. To be noted: Staphylococcus aureus, MRSA; Table 1; read-out: MIC MRSA-1. Format: cell-based, Staphylococcus aureus.
In test [2] the test system is MRSE 35984. Nature of the test: MIC broth microdilution assay. To be noted: for MIC: Staphylococcus epidermidis, MRSE. It is filed as cell-based, Staphylococcus epidermidis.
Test [3] has as its system VRE 700221. Nature of the test: MIC broth microdilution assay. Format: cell-based, Enterococcus faecium.
Test [4] relates to MRSA BAA-1707. The experiment in a line: MIC broth microdilution assay. It is filed as cell-based, Staphylococcus aureus. Conditions: Staphylococcus aureus.
Test [5] relates to S. epi 12228. The experiment in a line: MIC broth microdilution assay. Format: cell-based, Staphylococcus epidermidis. To be noted: Staphylococcus epidermidis, 12228; Table 1; read-out: MIC S. epi 12228.
Test [6] deals with MtB H37Ra. Nature of the test: MIC assay for Mycobacterium tuberculosis. It is filed as cell-based. To be noted: 168 h, seven days.
Test [7] relates to MRSA BAA-44. The experiment in a line: MIC broth microdilution assay. It is filed as cell-based. Conditions: Staphylococcus aureus; Table 1; read-out: MIC MRSA BAA-44.
The subject of test [8] is MRSA-2. Nature of the test: MIC broth microdilution assay. Format: cell-based, Staphylococcus aureus. Conditions: Staphylococcus aureus, MRSA; Table 1; read-out: MIC MRSA-2.
The test system of test [9] is MRSA BAA-1707. Nature of the test: MIC assay with metal(II) cation co-treatment. Format: cell-based, Staphylococcus aureus. To be noted: Staphylococcus aureus.
The test system of test [10] is MRSA BAA-1707. The experiment in a line: Calgary Biofilm Device (CBD) MBC/MBEC assay. It is filed as cell-based, Staphylococcus aureus. Conditions: CBD, 24 hours treatment.
For test [11], the system named is VRE 700221. Nature of the test: Calgary Biofilm Device (CBD) MBC/MBEC assay. It is filed as cell-based, Enterococcus faecium. To be noted: Enterococcus, VRE; CBD, planktonic killing; read-out: VRE 700221 MBC.
[12] abbreviates: Table 1, read-out: MIC MRSE 35984.
Setting [13] is: Enterococcus, VRE, Table 1, read-out: MIC VRE 700221.
Setting [14] is: Table 1, three independent experiments, read-out: MIC MRSA BAA-1707.
Where [15] appears, read: single plate shown as picture, read-out: MIC (µM), MIC Assay against MRSA BAA-1707.

Turning to `CCc1cccc2nc3c(O)c(Br)cc(C)c3nc12` [HP 6], the MIC in [1] was 0.78 µM (≈ 0.247 µg/mL); in test [2] (setting [12]), 0.3 to 0.78 µM (≈ 0.0952 to 0.247 µg/mL); in test [3] (setting [13]) it was 0.78 to 2.35 µM (≈ 0.247 to 0.745 µg/mL); in test [3] (Table 1, read-out: MIC VRE 700221) it was 0.78 µM (≈ 0.247 µg/mL). The “MIC MRSE 35984” value in test [2] (Table 1) is 0.30^a µM.
With `Oc1c(Br)cc(Br)c2nc3ccc(Br)cc3nc12` [HP 3], the results for the MIC in [4] (setting [14]), in test [2] (setting [12]) and in test [5] were 0.2 µM (≈ 0.0866 µg/mL), 3.13 µM (≈ 1.35 µg/mL) and 3.13 µM (≈ 1.35 µg/mL), respectively.
For `[H]/N=C(/N)N[C@H]1[C@H](O)[C@@H](O)[C@H](O[C@@H]2O[C@@H](C)[C@](O)(C=O)[C@H]2O[C@@H]2O[C@@H](CO)[C@H](O)[C@@H](O)[C@@H]2NC)[C@@H](N/C(N)=N\[H])[C@@H]1O` [streptomycin, reference compound], in [6], the MIC was 1.32 µM (≈ 0.768 µg/mL).
For the molecule `Oc1c(Br)cc(Br)c2nc3ccc(Oc4ccccc4)cc3nc12` [HP 16], in [1], the MIC came out at 25 µM (≈ 11.2 µg/mL).
As to `Cc1cc(Br)c(O)c2nc3cc(Cl)ccc3nc12` [HP 12], the MIC came to 75 µM (≈ 24.3 µg/mL) in test [1] and 12.5 µM (≈ 4.04 µg/mL) in [3] (setting [13]).
For the molecule `Cc1ccc2nc3c(Br)cc(Br)c(O)c3nc2c1` [HP 20], the MIC in test [7] turned out to be […]; in [8] it was […]; in test [2] (setting [12]), 6.25 µM (≈ 2.3 µg/mL).
For `C[C@H]1c2cccc(O)c2C(=O)C2=C(O)[C@]3(O)C(=O)C(C(N)=O)=C(O)[C@@H](N(C)C)[C@@H]3[C@@H](O)[C@@H]21` [Doxy., Doxycycline, reference compound], the MIC in test [9] (Table 2, MRSA BAA-1707, no metal(II) cation added, read-out: MIC) was determined as 0.78 µM; in test [9] (copper(II) at 200 µM co-treatment, read-out: MIC w/Cu2+), 0.78 µM; in [9] (iron(II) at 200 µM co-treatment, read-out: MIC w/Fe2+), 3.13 µM; in [9] (magnesium(II) at 200 µM co-treatment, read-out: MIC w/Mg2+), 0.78 µM; in [9] (zinc(II) at 200 µM co-treatment, read-out: MIC w/Zn2+) it was 0.39 µM.
Turning to `Cc1cc(Br)c(O)c2nc3cccc(Br)c3nc12` [HP 13], the MIC in test [4] (setting [14]) stood at 1.17 µM (≈ 0.431 µg/mL); in test [4] (setting [15]), 0.78 µM (≈ 0.287 µg/mL); in [8] it was 2.35 µM (≈ 0.865 µg/mL).
As to `CCCCc1cc(Br)c(O)c2nc3ccccc3nc12` [HP 2], the MIC in test [4] (setting [14]) came to 0.78 µM (≈ 0.258 µg/mL); in [4] (setting [15]), 0.78 µM (≈ 0.258 µg/mL); in test [1] it was 0.78 µM (≈ 0.258 µg/mL); in test [8] it was 3.13 µM (≈ 1.04 µg/mL); in test [3] (setting [13]), 0.78 µM (≈ 0.258 µg/mL).
For the molecule `CCCCCCCCCC(=O)N[C@@H](Cc1c[nH]c2ccccc12)C(=O)N[C@H](CC(N)=O)C(=O)N[C@@H](CC(=O)O)C(=O)N[C@@H]1C(=O)NCC(=O)N[C@@H](CCCN)C(=O)N[C@@H](CC(=O)O)C(=O)N[C@H](C)C(=O)N[C@@H](CC(=O)O)C(=O)NCC(=O)N[C@H](CO)C(=O)N[C@@H]([C@H](C)CC(=O)O)C(=O)N[C@@H](CC(=O)c2ccccc2N)C(=O)O[C@@H]1C` [daptomycin, reference compound], the MIC in test [4] (setting [14]) worked out at 3.13 µM (≈ 5.07 µg/mL); in test [4] (Table 3, read-out: MRSA BAA-1707 MIC) it was 3.13 µM (≈ 5.07 µg/mL); in test [7], 18.8 µM (≈ 30.5 µg/mL); in [2] (setting [12]) it was 12.5 µM (≈ 20.3 µg/mL); in test [2] (Table 3, read-out: MRSE 35984 MIC), 12.5 µM (≈ 20.3 µg/mL); in test [5], 6.25 µM (≈ 10.1 µg/mL). The MIC came to 125 µM (≈ 203 µg/mL) in test [3] (setting [13]) and 125 µM (≈ 203 µg/mL) in test [3] (Enterococcus, VRE, Table 3, read-out: VRE 700221 MIC). The “MRSA BAA-1707 MBEC” value in [10] (biofilm eradication) was above 2000 µM. The MBC in test [10] (Staphylococcus aureus, 24 h, planktonic killing, read-out: MRSA BAA-1707 MBC) is 125 µM (≈ 203 µg/mL); in test [11], 375 µM (≈ 608 µg/mL).
In the case of `Oc1cccc2cccnc12` [8-OHQ, 8-hydroxyquinoline, reference compound], the MIC in test [9] worked out at 9.38 µM; in [9] (read-out: MIC w/Cu2+) it was 4.69 µM; in [9] (read-out: MIC w/Fe2+) it was 12.5 µM; in [9] (read-out: MIC w/Mg2+), 6.25 µM; in test [9] (read-out: MIC w/Zn2+), 12.5 µM.
